Measurements as given in US9023875B2, “Macrocyclic compounds and methods of treatment” (University of Florida Research Foundation, Inc., priority 2007, dated 2015).
Where two headings read alike, the source gives them in different places. Starred links: 1 amine or outer side, 2 acyl side, 3 side chain; linkers in the order of their positions; H or OH if unused. Positions of bridges follow the written chain, without caps; N, C: chain ends. Non-standard residues stand in square brackets, D forms with d. Residues, ends and D or L forms follow the SMILES beside them. Chains are numbered I, II in the order given. Actinocin(9to1) = Cc1c2oc3c(C)ccc(C(=O)[*:1])c3nc-2c(C(=O)[*:2])c(N)c1=O; NMeV = CN[C@H](C(=O)O)C(C)C; Sar = CNCC(=O)O

What was measured:
[1] = test system: MDA-MB-231 cells (highly invasive transformed human mammary epithelial cells); assay: cells; format: cell-based
Experimental: (§1) Cell culture medium was purchased from Invitrogen and fetal bovine serum (FBS) from Hyclone. Cells were propagated and maintained in DMEM medium (high glucose) supplemented with 10% FBS at 37° C. humidified air and 5% CO2.
(§2) Cells suspended in DMEM containing 10% FBS were plated in 96-well plates (MDA-MB-231: 12,000 cells; NMuMG: 5,000 cells; U20S: 5,000 cells; HT29: 10,000 cells; 1MR-32: 30,000 cells; NIH3T3: 5,000 cells) incubated (37° C., 5% CO2) and 24 h later treated with various concentrations of compound 1 or solvent control (1% EtOH). After another 48 h of incubation, cell viability was measured using MITT according to manufacturer's instructions (Promega).
(§3) MDA-MB-231 and NMuMG cells were also treated with paclitaxel (in DMSO), actinomycin D (in DMSO) and doxorubicin (in H2O) and corresponding solvent control (1%) in the same manner. GI50 and LC50 values were calculated as previously described (K. D. Paull, E. Hamel, L. Malspeis, In Cancer Chemotherapeutic Agents, W. E. Foye, Ed., American Chemical Society, Washington, D.C., 1995, pp. 10-11).
(§4) [formula] [formula] [T=absorbance in treated wells (48 h); T0=absorbance at time zero; C=absorbance in control wells (48 h)]

[2] = test system: NIH3T3 cells (nontransformed fibroblasts); assay: cells; format: cell-based; conditions: for GI50: read-out: Growth-inhibitory activity (GI50), NIH3T3
Experimental: as §1, §2, §3, §4

[3] = test system: NMuMG cells (nontransformed murine mammary epithelial cells); assay: cells; format: cell-based; conditions: 48 h, read-out: Growth-inhibitory activity (GI50), NMuMG
Experimental: as §1, §2, §3, §4

[4] = test system: U2OS cells (fibroblastic osteosarcoma); assay: cells; format: cell-based; conditions: for GI50: read-out: Growth-inhibitory activity (GI50), U2OS
Experimental: as §1, §2, §3, §4

HCT-116 cells = assay: HCT-116 growth inhibition; format: cell-based; conditions: Homo sapiens
HDAC = assay: In vitro cellular HDAC activity assay (fluor de Lys substrate) in HCT-116 cells; format: cell-based; conditions: 8 h
Experimental: HCT-116 cells are seeded in 100 μL of medium per well at a density of 3.5×10^3 cells/well and grown for 24 h in a sterile 96-well solid bottom plate. The assay is carried out according to the manufacturer's instructions (BIOMOL). Briefly, after 24 h the medium iss replaced with 50 μL/well of medium containing 200 μM fluor de Lys™ substrate and 1 μM of trichostatin A (positive control) and test compounds (largazole, acetyl derivative) ranging from 1 μM to 3.2 nM ([…]) and thiol compound ranging from 10 μM to 300 pM. Plates are incubated at 37° C. for 8 h. After the treatment time, 50 μL per well of 1× fluor de Lys™ Developer containing TSA at 2 μM iss added. After developer addition, plates are incubated for 15 min at 37° C. and fluorescence is read (Ex 360 nm, Em 460 nm).

[5] = test system: HeLa nuclear extract HDACs (class I HDACs 1, 2, and 3); assay: Cell-free enzymatic assay with HDAC-enriched HeLa nuclear protein extract; format: biochemical; conditions: fluor de Lys substrate
Experimental: Largazole (1) inhibited HDAC activity from a HeLa cell nuclear protein extract rich in class I HDACs 1, 2, and 3 (BIOMOL); however, it is possible that the thioester is cleaved under assay conditions. To investigate that thiol 9 is a reactive species, we liberated 9 from the acetyl analog 8 of largazole (1) and measured enzymatic activity directly; thiol 9 inhibited the HDACs in the nuclear extract of HeLa cells with a similar IC50 value (Table 3).
Assay buffer (25 ul in blank and 10 ul in control), 1 μM triehostatin and test inhibitors (ranging from 10 μM to 300 pM) are added to test sample wells of the microtiter plate. HDAC-enriched nuclear protein extract from HeLa cells (BIOMOL) (5 μg in 15 uL) is added to all wells except in the no-enzyme control. The assay plate is equilibrated at 37° C., and then 25 μl of substrate fluor de Lys™ substrate is added to a final concentration of 116 μM. HDAC reaction is allowed to proceed for 15 min and then stopped by addition of 50 μl per well of 1× fluor de Lys™ Developer containing TSA at 2 μM. After developer addition, plates are incubated for 15 min at 37° C. and fluorescence is read (Ex 360 nm, Em 460 nm).

in vitro = format: cell-based, murine; conditions: mouse, NMuMG cells, MTT, read-out: LC50 (cytotoxicity), NMuMG
Experimental: as §1, §2, §3, §4

[6] = test system: HT29 cells (colon cancer cell line); assay: Cell viability (MTT) assay, HT29; format: cell-based; conditions: Homo sapiens, HT-29, 48 h
Experimental: as §1, §2, §3, §4

[7] = test system: IMR-32 cells (neuroblastoma cell line); assay: Cell viability (MTT) assay, IMR-32; format: cell-based; conditions: Homo sapiens, 48 h
Experimental: as §1, §2, §3, §4

acetylated histone H3 = assay: Immunoblot analysis of acetylated histone H3 in HCT-116 cells; format: cell-based; conditions: 8 h
Experimental: HCT-116 cells (650,000 cells/dish) are seeded in 10-cm dishes and 24 h later treated with various concentrations of largazole, trichostatin or solvent controls (EtOH for largazole and DMSO for trichostatin). Following incubation for 8 h, whole-cell lysates are prepared using PhosphoSafe lysis buffer (Novagen), proteins extracted, and protein concentration measured using the BCA method (Pierce). Cell lysates containing equal amounts of protein are separated by SDS-PAGE, transferred to PVDF membranes, probed with antibodies and detected with the Supersignal Femto Western blotting kit (Pierce). Anti-acetyl-histone H3 (Lys9/18) and anti-histone H3 primary antibodies are obtained from Millipore and horseradish peroxidase conjugated anti-rabbit secondary antibody is purchased from Cell Signaling.

[8] = Homo sapiens, MDA-MB-231, 48 h, MDA-MB-231 cells, 48 h, MTT, read-out: Growth-inhibitory activity (GI50), MDA-MB-231
[9] = Mus musculus, NIH3T3 cells, 48 h, MTT
[10] = Mus musculus, Epithelial cell, NMuMG cells, MTT
[11] = Homo sapiens, U2OS cells, 48 h, MTT

Structure (SMILES): CC(=O)O[C@H]1C(=O)[C@@]2(C)[C@H]([C@H](OC(=O)c3ccccc3)[C@]3(O)C[C@H](OC(=O)[C@H](O)[C@@H](NC(=O)c4ccccc4)c4ccccc4)C(C)=C1C3(C)C)[C@]1(OC(C)=O)CO[C@@H]1C[C@@H]2O [Paclitaxel, reference compound]
- GI50 [1, 8]: 7 nM
- GI50 [2, 9]: 6.4 nM
- GI50 [3, 10]: 5.9 nM
- GI50 [4, 11]: 12 nM

Structure (SMILES): CC(C)C1NC(=O)C2(C)CSC(=N2)c2csc(n2)CNC(=O)CC(C=CCCS)OC1=O (centres unmarked) [Compound 9]
- GI50 (HCT-116 cells): 38 ± 5 nM
- IC50 (HDAC): 209 ± 15 nM
- IC50 [5]: 42 ± 29 nM

Structure (SMILES): CCCCCCCC(=O)SCC/C=C/[C@@H]1CC(=O)NCc2nc(cs2)C2=N[C@@](C)(CS2)C(=O)N[C@@H](C(C)C)C(=O)O1 [Largazole (1), largazole]
- CC50 at 48 h (in vitro): 272 nM
- GI50 ([1]; Homo sapiens, MDA-MB-231, 48 h, read-out: Growth-inhibitory activity (GI50), MDA-MB-231, MDA-MB-231 cells, 48 h, MTT): 8 nM
- Differential growth-inhibitory activity between transformed and nontransformed epithelial cells ([1]; MDA-MB-231 vs NMuMG (GI50)): 15 fold
- GI50 ([1]; read-out: Growth-inhibitory activity (GI50), MDA-MB-231, MDA-MB-231 cells, 48 h, MTT): 7.7 nM
- GI50 ([2]; Mus musculus, NIH3T3, 48 h): 480 nM
- Toxicity (cytotoxicity) in NIH3T3 ([2]; NIH3T3 cells, 48 h, MTT): no apparent toxicity
- GI50 ([3]; Mus musculus, Epithelial cell): 122 nM
- GI50 ([4]; Homo sapiens, U2OS, 48 h): 55 nM
- CC50 ([4]; Homo sapiens, U2OS, 48 h, read-out: LC50 (cytotoxicity), U2OS): 94 nM
- Differential growth-inhibitory activity between transformed and nontransformed fibroblasts ([4]; U2OS vs NIH3T3 (GI50)): 8 fold
- GI50 [6]: 12 nM
- CC50 ([6]; read-out: LC50 (cytotoxicity), HT29): 22 nM
- GI50 [7]: 16 nM
- GI50 (HCT-116 cells): 44 ± 10 nM
- IC50 (HDAC): 51 ± 3 nM
- IC50 [5]: 37 ± 11 nM
- Immunoblot of endogenous HDAC substrate acetylated histone H3 (acetylated histone H3): same dose-response relationship

Structure (SMILES): CC(=O)SCCC=CC1CC(=O)NCc2nc(cs2)C2=NC(C)(CS2)C(=O)NC(C(C)C)C(=O)O1 (centres unmarked) [Compound 8]
- GI50 (HCT-116 cells): 33 ± 2 nM
- IC50 (HDAC): 50 ± 18 nM
- IC50 [5]: 52 ± 27 nM

Structure (SMILES): COc1cccc2c1C(=O)c1c(O)c3c(c(O)c1C2=O)C[C@@](O)(C(=O)CO)C[C@@H]3O[C@H]1C[C@H](N)[C@H](O)[C@H](C)O1 [Doxorubicin, reference compound]
- GI50 [1, 8]: 310 nM
- GI50 [2, 9]: 47 nM
- GI50 [3, 10]: 63 nM
- GI50 [4, 11]: 220 nM

Structure (SMILES): Cc1c2oc3c(C)ccc(C(=O)N[C@@H]4C(=O)N[C@H](C(C)C)C(=O)N5CCC[C@H]5C(=O)N(C)CC(=O)N(C)[C@@H](C(C)C)C(=O)O[C@@H]4C)c3nc-2c(C(=O)N[C@@H]2C(=O)N[C@H](C(C)C)C(=O)N3CCC[C@H]3C(=O)N(C)CC(=O)N(C)[C@@H](C(C)C)C(=O)O[C@@H]2C)c(N)c1=O [Actinomycin D, reference compound] (I: T[dV]P[Sar][NMeV] / II: T[dV]P[Sar][NMeV]; ester I:1-I:C, II:1-II:C; linker I:N-II:N via Actinocin(9to1))
- GI50 ([1]; MDA-MB-231 cells, 48 h, MTT, read-out: Growth-inhibitory activity (GI50), MDA-MB-231): 0.5 nM
- GI50 ([2]; NIH3T3 cells, 48 h, MTT): 0.4 nM
- GI50 ([3]; NMuMG cells, MTT): 0.3 nM
- GI50 ([4]; U2OS cells, 48 h, MTT): 0.8 nM
